Paper PMC11984407, “A natural small molecule isoginkgetin alleviates hypercholesterolemia and atherosclerosis by targeting ACLY” (Theranostics, 2025)

Assays:
ACLY = target: T1, ACLY (Mus musculus, UniProt Q91V92); experiment: ACLY activity in vivo, mouse liver extracts (MDH-coupled method); set-up: from tissue; host or cells: liver of Apoe-/- mice dosed with ISOGK; conditions: male and female Apoe-/- mice, 20 mg/kg/day, 8 weeks
T1 sequence (Q91V92 1-1091): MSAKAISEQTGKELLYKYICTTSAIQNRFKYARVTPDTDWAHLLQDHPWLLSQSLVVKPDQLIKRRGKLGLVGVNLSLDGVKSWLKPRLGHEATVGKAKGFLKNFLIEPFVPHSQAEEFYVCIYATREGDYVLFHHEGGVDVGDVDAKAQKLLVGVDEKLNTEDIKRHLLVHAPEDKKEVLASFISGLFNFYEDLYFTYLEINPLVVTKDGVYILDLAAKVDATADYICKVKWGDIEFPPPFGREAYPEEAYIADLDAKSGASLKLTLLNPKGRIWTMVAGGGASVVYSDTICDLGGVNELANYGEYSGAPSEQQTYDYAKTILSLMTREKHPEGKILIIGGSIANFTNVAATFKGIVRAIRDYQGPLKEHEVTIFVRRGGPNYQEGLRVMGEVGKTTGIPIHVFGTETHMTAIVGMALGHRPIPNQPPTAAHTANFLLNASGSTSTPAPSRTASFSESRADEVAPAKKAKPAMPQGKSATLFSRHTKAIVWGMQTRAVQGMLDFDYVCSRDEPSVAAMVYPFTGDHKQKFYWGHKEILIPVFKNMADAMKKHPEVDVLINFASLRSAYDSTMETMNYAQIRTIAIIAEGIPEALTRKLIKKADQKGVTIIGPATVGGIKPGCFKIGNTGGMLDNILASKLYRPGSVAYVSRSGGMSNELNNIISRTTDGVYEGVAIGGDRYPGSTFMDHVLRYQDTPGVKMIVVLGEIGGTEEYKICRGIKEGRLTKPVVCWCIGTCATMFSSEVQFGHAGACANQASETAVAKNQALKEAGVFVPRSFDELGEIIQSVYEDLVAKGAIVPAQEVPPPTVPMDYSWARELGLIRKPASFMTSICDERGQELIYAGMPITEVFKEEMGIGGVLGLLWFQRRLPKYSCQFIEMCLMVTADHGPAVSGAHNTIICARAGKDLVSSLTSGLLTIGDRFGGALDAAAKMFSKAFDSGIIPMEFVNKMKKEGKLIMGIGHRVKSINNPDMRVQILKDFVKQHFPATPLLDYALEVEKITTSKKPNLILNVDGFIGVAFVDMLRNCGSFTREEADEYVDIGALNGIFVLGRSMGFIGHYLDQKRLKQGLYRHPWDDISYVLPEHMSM
Protocol: The activity of the ACLY enzyme was assayed utilizing malate dehydrogenase (MDH)-coupled method kits (BC4240, Solarbio, Beijing, China). In summary, liver extracts were incubated in a reaction buffer comprising 20 mM citrate, 10 mM MgCl₂, 10 mM DTT, 0.5 U/ml of malic dehydrogenase, 0.33 mM CoASH, and 0.14 mM NADH, both in the presence and absence of 5 mM ATP. The quantity of oxaloacetate produced by ACLY catalysis was determined by measuring the alteration in absorbance at 340 nm, which corresponds to the depletion of NADH during the MDH-catalyzed reaction. After accounting for background variations in absorbance in the absence of ATP, the relative ACL activities were computed by normalizing the data to the weight of the liver tissue.

recombinant ACLY protein = target: T2, recombinant ACLY protein (Homo sapiens, UniProt P53396); experiment: ACLY activity assay in vitro (cell-free ADP-Glo assay); type: biochemical; conditions: read-out: ACLY enzyme activity IC50
T2 sequence (P53396 1-1101): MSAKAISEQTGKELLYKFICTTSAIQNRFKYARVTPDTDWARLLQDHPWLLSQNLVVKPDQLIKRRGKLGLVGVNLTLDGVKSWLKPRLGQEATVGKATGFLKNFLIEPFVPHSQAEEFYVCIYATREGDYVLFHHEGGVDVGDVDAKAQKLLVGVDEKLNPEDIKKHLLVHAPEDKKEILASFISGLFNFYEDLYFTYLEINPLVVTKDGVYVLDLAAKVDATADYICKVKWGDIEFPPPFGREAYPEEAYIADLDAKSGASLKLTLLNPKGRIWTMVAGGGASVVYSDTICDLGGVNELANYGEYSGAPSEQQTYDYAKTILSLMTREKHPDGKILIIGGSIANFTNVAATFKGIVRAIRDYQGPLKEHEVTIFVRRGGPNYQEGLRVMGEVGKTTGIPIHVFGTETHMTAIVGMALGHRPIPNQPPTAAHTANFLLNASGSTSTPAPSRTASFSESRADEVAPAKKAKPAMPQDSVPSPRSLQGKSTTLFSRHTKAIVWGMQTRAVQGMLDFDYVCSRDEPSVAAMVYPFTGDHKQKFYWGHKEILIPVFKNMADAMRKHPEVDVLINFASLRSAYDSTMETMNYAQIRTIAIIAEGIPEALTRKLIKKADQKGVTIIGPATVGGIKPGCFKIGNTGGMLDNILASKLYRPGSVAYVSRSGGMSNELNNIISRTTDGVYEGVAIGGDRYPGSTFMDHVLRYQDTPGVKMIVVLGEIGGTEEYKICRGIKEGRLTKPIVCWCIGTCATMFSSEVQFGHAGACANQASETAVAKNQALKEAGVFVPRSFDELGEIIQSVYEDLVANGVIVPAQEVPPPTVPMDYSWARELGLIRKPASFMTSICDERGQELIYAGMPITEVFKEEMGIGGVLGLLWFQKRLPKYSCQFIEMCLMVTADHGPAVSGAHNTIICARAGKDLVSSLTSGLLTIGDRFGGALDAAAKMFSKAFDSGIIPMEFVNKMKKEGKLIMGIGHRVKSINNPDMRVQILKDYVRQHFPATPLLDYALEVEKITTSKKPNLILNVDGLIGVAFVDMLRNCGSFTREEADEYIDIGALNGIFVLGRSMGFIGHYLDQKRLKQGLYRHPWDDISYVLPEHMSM
Protocol: ACLY activity was assessed in a cell-free system using an ADP-Glo dependent assay, as previously described. Briefly, the reaction was conducted in a 384-well plate containing 2 µL of substrate (5 mmol/L ATP, 30 mmol/L citrate, 15 mmol/L CoA) in kinase buffer (40 mmol/L Tris base, 10 mmol/L MgCl2, 5 mmol/L DTT). The reaction was initiated by adding 20 nmol/L recombinant human ACLY protein and various concentrations of the compounds, followed by incubation for 30 min at 37 °C. During the reaction, ACLY converted ATP to ADP. ADP levels, which reflect ACLY activity, were quantified using the ADP-Glo assay kit (V9102, Promega, Madison, USA) in accordance with the manufacturer's instructions. The enzymatic activity curve was analyzed using the log (inhibitor) versus normalized response-variable slope function in GraphPad Prism.

Structure (SMILES): COc1ccc(-c2cc(=O)c3c(O)cc(O)c(-c4cc(-c5cc(=O)c6c(O)cc(O)cc6o5)ccc4OC)c3o2)cc1 [ISOGK, Isoginkgetin]
- ACLY enzyme activity in liver tissue (ACLY): significantly inhibits ACLY activity
- IC50 (recombinant ACLY protein): 5.46 ± 1.11 µM
